# Results from patent publication US20230203096A1, “EPHA4 TARGETING COMPOUNDS AND METHODS OF USE THEREOF” (priority 2020, published 2023).
# “Also recorded” adds a separate entry of the source. Read-outs that look alike come from different tables or passages of the source. Square brackets hold non-standard residues; d marks the D form. Peptide text beside a SMILES is read from it. * marks the point of attachment. Cyclohexanoyl(1S,3S-3-NH2) = N[C@H]1CCC[C@H](C(=O)*)C1; Trp(5-OH) = N[C@@H](Cc1c[nH]c2ccc(O)cc12)C(=O)O; NH(4-morpholinophenyl) = c1cc(N2CCOCC2)ccc1N*; Bip = N[C@@H](Cc1ccc(-c2ccccc2)cc1)C(=O)O; hArg = N=C(N)NCCCC[C@H](N)C(=O)O
# Assays:
# Aqueous solubility = type: physicochemical
# [1] = molecular target: T1, ^13C^ε-Met-labeled EphA4-LBD (Homo sapiens, UniProt P54764, C204A); experiment: 2D [13C,1H] HSQC NMR chemical shift perturbation of Met resonances; type: binding
# T1 construct: His tag (N); made in house; host or cells: E. coli Rosetta-Gami B(DE3), pET15b
# Method: Peptides were synthesized by using standard solid-phase synthesis protocol, using the BAL resin as anchoring for the C-terminal amines. Isothermal Titration Calorimetry (ITC) measurements were performed in a reverse fashion by titrating the protein into the ligand solution. Solution nuclear magnetic resonance (NMR) experiments were conducted on a 700 MHz Bruker Avance spectrometer equipped with a TCI cryoprobe. […]
# 2D [^13C,^1H] correlation NMR spectra measured with such protein targets, collected in absence or presence of test ligands can be used to monitor ligand binding and make, albeit qualitative, determinations on possible conformational changes induced by test ligands on the protein target. […] In targeting EphA4, an important aspect regarding the activity of its ligands is whether these agents could be predicted to work as antagonists or agonists.
# NMR spectra were acquired on Bruker Avance III 700 MHz spectrometer equipped with a TCI cryoprobe. All NMR data were processed and analyzed using TOPSPIN 3.6.1 (Bruker, Billerica, Mass., USA).
# Chemical shift changes (A) in the 2D [^13C, ^1H] spectra were calculated as weight average perturbations observed in the ^1H and ^13C dimensions using the following Equation: […]
# EphA3-LBD Chimera = EphA3-LBD Chimera (Homo sapiens, UniProt P54764, C204A/E77D/G52H/I159L/I59G/M164L/M60V/R37K/V157M); experiment: Isothermal titration calorimetry (ITC) against EphA3-LBD chimera; conditions: listed as 150D4
# Method: (§1) Isothermal titration calorimetry (ITC) measurements were performed using the Affinity ITC Autosampler from TA Instruments (New Castle, Del.). The titrations were performed in a reverse fashion by titrating the protein into the ligand solution. […] The injections were made at 200 s or 400 s intervals with a stirring speed of 75 rpm. All the solutions were kept in the autosampler at 4° C. The analysis of the thermodynamics signatures and for dissociation constant determination was performed by the NanoAnalyze software (TA Instruments, New Castle, Del.) and subsequently exported into Microsoft Excel.
# [2] = molecular target: T2, recombinant EphA4 ligand binding domain (Homo sapiens, UniProt P54764, C204A); experiment: Isothermal titration calorimetry (ITC) against EphA4-LBD; conditions: ITC, EphA4-LBD
# T2 construct: His tag (N); made in house; host or cells: E. coli Rosetta-Gami B(DE3), pET15b
# Method: Peptides were synthesized by using standard solid-phase synthesis protocol, using the BAL resin as anchoring for the C-terminal amines. Isothermal Titration Calorimetry (ITC) measurements were performed in a reverse fashion by titrating the protein into the ligand solution. Solution nuclear magnetic resonance (NMR) experiments were conducted on a 700 MHz Bruker Avance spectrometer equipped with a TCI cryoprobe. Each protein sample was dissolved into an NMR tube at a final concentration of 20 μM (1% DMSO-d6) in the presence of 20 μM of each compound.
# The fragments were transformed into Rosetta-Gami B(DE3) competent cells and grown in LB medium at 37° C. with 100 μg/mL of ampicillin until reaching an OD600 of 0.6-0.7 followed by induction with 0.4 mM IPTG overnight at 20° C. Bacteria were then collected by centrifugation and lysed by sonication at 4° C. […] EphA4 LBD with ^13C^ε/^1H^ε-Met labeled was expressed like previously described but adding a suspension of 100 mg of ^13C^ε/^1H^ε-Methionine in 1 mL of DMSO per liter of LB medium, 10 minutes before induction. […] Transformation, expression, and purification of EphA3-LBD chimera was performed as described above for EphA4-LBD.
# Isothermal titration calorimetry (ITC) measurements were performed using the Affinity ITC Autosampler from TA Instruments (New Castle, Del.). The titrations were performed in a reverse fashion by titrating the protein into the ligand solution. […] The syringe was filled with a 100 μM solution of EphA4-LBD, EphA3-LBD Chimera, or EphA2-LBD, and 20 injections of 2.5 μL each were performed into the cell containing a 20 μM solution of the compounds. The injections were made at 200 s or 400 s intervals with a stirring speed of 75 rpm. All the solutions were kept in the autosampler at 4° C. The analysis of the thermodynamics signatures and for dissociation constant determination was performed by the NanoAnalyze software (TA Instruments, New Castle, Del.) and subsequently exported into Microsoft Excel.
# EphA2-LBD = EphA2-LBD (Homo sapiens, UniProt P29317); experiment: Isothermal titration calorimetry (ITC) against EphA2-LBD
# Method: as §1
# [3] = In vivo pharmacokinetics and brain exposure; conditions: mice; for tissue level at time at 0.5 h / level at 0.5 h / tissue level at time at 24 h / level at 24 h / level at 1 h: mouse; for tissue level at time at 0.5 h / tissue level at time at 24 h: read-out: Amount of compound per mg of wet brain tissue
# [4] = system: mouse motor neurons co-cultured with iAstrocytes derived from sALS patients; experiment: Co-culture of sALS patient derived iAstrocytes and motor neurons (motor neuron survival); type: cell-based; conditions: 10 μM
# Excerpt: EphA4 has been directly implicated in the progression of ALS in mice models and in human genetic studies. While the mechanisms for onset and progression of ALS remain largely undetermined, astrocytes have been implicated as significant contributors to motor neuron death in both in familial ALS (fALS), that is driven by inactivating mutations within the superoxide dismutase 1 (SOD1) gene and that account for less than 2% of all ALS cases, (Di Giorgio et al., Nat Neurosci, 10 (5): 608-614, (2007); Nagai et al., Nat Neurosci, 10 (5): 615-622, (2007); Yamanaka et al., Nat Neurosci, 11 (3): 251-253, (2008)) and the more common sporadic form of ALS (sALS). […] Recently, it was shown that astrocytes derived from both patient groups are similarly toxic to motor neurons (Haidet-Phillips et al., Nat Biotechnol, 29 (9): 824-828, (2011)).
# Induced Astrocytes were generated by seeding a low quantity of NPCs into astrocyte medium (DMEM media containing 10% FBS and 0.2% N2) for five days. Following differentiation, iAstrocytes were lifted and seeded into a 96 well (10,000 cells per well).
# Cells are sorted through a 100 micron tip with sheath pressure of 27. GFP+ motor neurons were seeded in a 96 well plate (10,000 cells per well). Co-cultures were imaged with InCell for up to three days. Motor neurons with neurite outgrowth of greater than 50 um were counted as alive.
# [5] = test ligands at 40 μM, EphA4-LDB at 20 μM, Table 8
# T1 sequence (P54764 29-209 C204A): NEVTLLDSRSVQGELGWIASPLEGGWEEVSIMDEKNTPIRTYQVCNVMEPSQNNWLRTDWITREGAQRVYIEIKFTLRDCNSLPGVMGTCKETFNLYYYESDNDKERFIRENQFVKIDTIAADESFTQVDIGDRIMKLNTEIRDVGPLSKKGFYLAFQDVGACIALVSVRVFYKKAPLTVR
# T2 sequence (P54764 29-209 C204A): as above
# Sequence of EphA3-LBD Chimera (P54764 29-209 R37K/G52H/I59G/M60V/E77D/V157M/I159L/M164L/C204A): as the sequence (P54764 29-209 C204A) above, with R9K, G24H, I31G, M32V, E49D, V129M, I131L, M136L counted along it
# Sequence of EphA2-LBD (P29317 27-200): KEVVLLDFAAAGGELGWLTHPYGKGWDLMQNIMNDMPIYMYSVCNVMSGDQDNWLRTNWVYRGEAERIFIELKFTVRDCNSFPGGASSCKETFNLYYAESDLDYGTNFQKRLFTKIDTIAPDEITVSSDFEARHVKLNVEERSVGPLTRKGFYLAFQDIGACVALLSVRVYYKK
smiles,measurement,setting,value
"N=C(N)NCCCC[C@H](NC(=O)[C@H](Cc1ccc(-c2ccccc2)cc1)NC(=O)[C@H](Cc1c[nH]c2ccc(O)cc12)NC(=O)[C@H]1CCC[C@H](N)C1)C(=O)NCC(=O)Nc1ccc(N2CCOCC2)cc1 [Compound 8, (1S,3S)—N—((S)-1-(((S)-3-([1,1′-biphenyl]-4-yl)-1-(((S)-6-guanidino-1-((2-((4-morpholinophenyl)amino)-2-oxoethyl)amino)-1-oxohexan-2-yl)amino)-1-oxopropan-2-yl)amino)-3-(5-hydroxy-1H-indol-3-yl)-1-oxopropan-2-yl)-3-aminocyclohexane-1-carboxamide] ({Cyclohexanoyl(1S,3S-3-NH2)}-[Trp(5-OH)][Bip][hArg]G-{NH(4-morpholinophenyl)})",Aqueous Solubility,Aqueous solubility,>50 mM
same,chemical shift perturbation of Met 115 (in words),[1],no significant perturbations
same,chemical shift changes of Met 60 and Met 164 (in words),[1]; FIG. 8B,large chemical shift changes
same,Δδ ^13C^ϵ/^1H^ϵ Met 164,"[1]; protein 20 μM, 20 μM of each compound",++++ (++++ >0.25 ppm)
same,koff,[1]; read-out: estimated upper limit for the off rate for the complex koff,< 60 s⁻¹
same,Δδ Met 60,[1]; [5],++ (0.1 ppm < ++ <0.2 ppm)
same,Δδ Met 115,[1]; [5],+ (0< + <0.1 ppm)
same,Δδ Met 164,[1]; [5],++++ (++++ >0.25 ppm)
same,binding to EphA3 (in words),EphA3-LBD Chimera,limited binding; also recorded: markedly reduced affinity
same,-TΔS,[2],-0.88 kcal/mol
same,AH,[2],-8.49 kcal/mol
same,Kd,[2]; read-out: Kd (nM)- ITC,113 nM
same,binding to EphA2 (in words),EphA2-LBD,limited binding
same,Total extracted brain compound,"[3]; 10 mg/kg IV, 30 min",205.6 ng
same,Total extracted brain compound,"[3]; 10 mg/kg IV, 24 hr",60 ng
same,Total extracted brain compound,"[3]; 50 mg/Kg IP, 30 min",185 ng
same,Total extracted brain compound,"[3]; 50 mg/Kg IP, 24 hr",34.7 ng
same,tissue level at time at 0.5 h,"[3]; brain, 10 mg/kg IV, 30 min",4730 ng/g
same,level at 0.5 h,"[3]; brain, 10 mg/kg IV, 30 min, read-out: Brain concentration",189 ng/mL
same,tissue level at time at 24 h,"[3]; brain, 10 mg/kg IV, 24 hr",1360 ng/g
same,level at 24 h,"[3]; brain, 10 mg/kg IV, 24 hr, read-out: Brain concentration",54 ng/mL
same,tissue level at time at 0.5 h,"[3]; brain, 50 mg/Kg IP, 30 min",4600 ng/g
same,level at 1 h,"[3]; brain, 50 mg/Kg IP, read-out: Brain concentration",184 ng/mL
same,tissue level at time at 24 h,"[3]; brain, 50 mg/Kg IP, 24 hr",1100 ng/g
same,level at 24 h,"[3]; brain, 50 mg/Kg IP, 24 hr, read-out: Brain concentration",45.5 ng/mL
same,level at 0.5 h,"[3]; plasma, 10 mg/kg IV, 30 min, read-out: Plasma drug concentration",484 ng/mL
same,level at 24 h,"[3]; plasma, 10 mg/kg IV, 24 hr, read-out: Plasma drug concentration",14.2 ng/mL
same,level at 1 h,"[3]; plasma, 50 mg/Kg IP, read-out: Plasma drug concentration",7740 ng/mL
same,level at 24 h,"[3]; plasma, 50 mg/Kg IP, 24 hr, read-out: Plasma drug concentration",45 ng/mL
same,protection of motor neurons from sALS astrocytes-induced death,[4],able to protect mouse motor neurons from iAstrocytes derived from sALS patients
